Where a name gives a salt, the structure may show the parent alone. Read-outs that look alike come from different tables or passages of the source.

Experiment in all cases: AK assay 384-well format, Prestwick library screening
One test has as its system K. pneumoniae. It counts as cell-based, Klebsiella pneumoniae. The conditions noted are these: 50 μM final drug concentration; for fold induction at 50 µM: Klebsiella pneumoniae, 3 h.
Test [1] has as its system S. aureus strain USA300-0114. Format: cell-based, Staphylococcus aureus. As to conditions: 50 μM final drug concentration; for fold induction at 50 µM: Staphylococcus aureus, USA300, 3 h.
A further test relates to P. aeruginosa. It counts as cell-based, Pseudomonas aeruginosa. As to conditions: 50 μM final drug concentration; for fold induction at 50 µM: Pseudomonas aeruginosa, 3 h.
A further test relates to E. coli. It counts as cell-based, Escherichia coli. As to conditions: 50 μM final drug concentration; for fold induction at 50 µM: Escherichia coli, 3 h.
For a further test, the system named is E. faecium. It counts as cell-based, Enterococcus faecium. The conditions noted are these: 50 μM final drug concentration; for fold induction at 50 µM: Enterococcus faecium, 3 h.
The test system of test [2] is A. baumannii strain 98-37-09. Format: cell-based, Acinetobacter baumannii. The conditions noted are these: 50 μM final drug concentration; for fold induction at 50 µM: Acinetobacter baumannii, 983709, 3 h.
In another test the test system is E. cloacae. Format: cell-based, Enterobacter cloacae. As to conditions: 50 μM final drug concentration; for fold induction at 50 µM: Enterobacter cloacae, 3 h.
Setting [3] is: planktonic, cutoff for positive 3-fold increase.

With `CC(=O)OCC(=O)[C@@]1(O)CC[C@H]2[C@@H]3CCC4=CC(=O)CC[C@]4(C)[C@@]3(F)[C@@H](O)C[C@@]21C` [Fludrocortisone acetate], the fold induction at 50 µM in the test with K. pneumoniae (planktonic K. pneumoniae, 384-well, cutoff for positive-scoring molecules 3-fold increase, read-out: AK-based Prestwick Library Screening Results: K. pneumoniae (increase in extracellular AK activity)) was found to be 1; in test [1] (planktonic S. aureus, 384-well, cutoff for positive-scoring molecules 3-fold increase, read-out: AK-based Prestwick Library Screening Results: S. aureus (increase in extracellular AK activity)) it was 1; in the test on P. aeruginosa (planktonic P. aeruginosa, 384-well, cutoff for positive-scoring molecules 3-fold increase, read-out: AK-based Prestwick Library Screening Results: P. aeruginosa (increase in extracellular AK activity)) it was 1.2; in the test with E. coli (planktonic E. coli, 384-well, cutoff for positive-scoring molecules 3-fold increase, read-out: AK-based Prestwick Library Screening Results: E. coli (increase in extracellular AK activity)), 1.3; in the test on E. faecium (planktonic E. faecium, 384-well, cutoff for positive-scoring molecules 3-fold increase, read-out: AK-based Prestwick Library Screening Results: E. faecium (increase in extracellular AK activity)) it was 1.1; in test [2] (planktonic A. baumannii, 384-well, cutoff for positive-scoring molecules 3-fold increase, read-out: AK-based Prestwick Library Screening Results: A. baumannii (increase in extracellular AK activity)) it was 1.2. In the test on E. cloacae (planktonic E. cloacae, 384-well, cutoff for positive-scoring molecules 3-fold increase, read-out: AK-based Prestwick Library Screening Results: E. cloacae (increase in extracellular AK activity)), the fold induction at 50 µM turned out to be 1.4.

For `C[C@H](N)[C@H](O)c1cccc(O)c1` [Metaraminol bitartrate], the fold induction at 50 µM worked out at 0.8 in the test with K. pneumoniae (384-well format, cutoff for positive-scoring molecules 3-fold increase, read-out: AK-based Prestwick Library Screening Results, K. pneumoniae (increase in extracellular AK activity)); 0.7 in test [1] (384-well format, cutoff for positive-scoring molecules 3-fold increase, read-out: AK-based Prestwick Library Screening Results, S. aureus (increase in extracellular AK activity)); 0.8 in the test on P. aeruginosa (384-well format, cutoff for positive-scoring molecules 3-fold increase, read-out: AK-based Prestwick Library Screening Results, P. aeruginosa (increase in extracellular AK activity)); 1 with E. coli (384-well format, cutoff for positive-scoring molecules 3-fold increase, read-out: AK-based Prestwick Library Screening Results, E. coli (increase in extracellular AK activity)); 1 in the test with E. faecium (384-well format, cutoff for positive-scoring molecules 3-fold increase, read-out: AK-based Prestwick Library Screening Results, E. faecium (increase in extracellular AK activity)); 0.9 in test [2] (384-well format, cutoff for positive-scoring molecules 3-fold increase, read-out: AK-based Prestwick Library Screening Results, A. baumannii (increase in extracellular AK activity)). The fold induction at 50 µM with E. cloacae (384-well format, cutoff for positive-scoring molecules 3-fold increase, read-out: AK-based Prestwick Library Screening Results, E. cloacae (increase in extracellular AK activity)) stood at 1.3.

In the case of `C[C@]12N[C@H](Cc3ccccc31)c1ccccc12` [Dizocilpine maleate], the fold induction at 50 µM in the test on K. pneumoniae (384-well format, […], read-out: AK-based Prestwick Library Screening Results, K. pneumoniae (increase in extracellular AK activity)) was determined as 0.7; in test [1] (384-well format, […], read-out: AK-based Prestwick Library Screening Results, S. aureus (increase in extracellular AK activity)), 0.7; in the test with P. aeruginosa (384-well format, […], read-out: AK-based Prestwick Library Screening Results, P. aeruginosa (increase in extracellular AK activity)), 0.9; in the test with E. coli (384-well format, […], read-out: AK-based Prestwick Library Screening Results, E. coli (increase in extracellular AK activity)), 0.9; with E. faecium (384-well format, […], read-out: AK-based Prestwick Library Screening Results, E. faecium (increase in extracellular AK activity)) it was 0.9; in test [2] (384-well format, […], read-out: AK-based Prestwick Library Screening Results, A. baumannii (increase in extracellular AK activity)), 0.8. Besides, the fold induction at 50 µM in the test on E. cloacae (384-well format, […], read-out: AK-based Prestwick Library Screening Results, E. cloacae (increase in extracellular AK activity)) was 1.

Turning to `CC[C@@]1([C@@H]2O[C@@H]([C@H]3O[C@@](O)(CO)[C@H](C)C[C@@H]3C)C[C@@H]2C)CC[C@H]([C@]2(C)CC[C@]3(C[C@H](O)[C@@H](C)[C@@H]([C@@H](C)[C@@H](OC)[C@H](C)C(=O)O)O3)O2)O1` [Monensin sodium salt], the fold induction at 50 µM in the test on K. pneumoniae (planktonic, cutoff for positive-scoring molecules 3-fold increase, read-out: AK-based Prestwick Library Screening Results, K. pneumoniae (fold increase in extracellular AK activity)) came to 0.6; in test [1] (planktonic, cutoff for positive-scoring molecules 3-fold increase, read-out: AK-based Prestwick Library Screening Results, S. aureus (fold increase in extracellular AK activity)) it was 0.7; with P. aeruginosa (planktonic, cutoff for positive-scoring molecules 3-fold increase, read-out: AK-based Prestwick Library Screening Results, P. aeruginosa (fold increase in extracellular AK activity)) it was 0.9; with E. coli (planktonic, cutoff for positive-scoring molecules 3-fold increase, read-out: AK-based Prestwick Library Screening Results, E. coli (fold increase in extracellular AK activity)), 0.9; in the test on E. faecium (planktonic, cutoff for positive-scoring molecules 3-fold increase, read-out: AK-based Prestwick Library Screening Results, E. faecium (fold increase in extracellular AK activity)) it was 1.1; in test [2] (planktonic, cutoff for positive-scoring molecules 3-fold increase, read-out: AK-based Prestwick Library Screening Results, A. baumannii (fold increase in extracellular AK activity)), 0.7. Moreover, the fold induction at 50 µM in the test on E. cloacae (planktonic, cutoff for positive-scoring molecules 3-fold increase, read-out: AK-based Prestwick Library Screening Results, E. cloacae (fold increase in extracellular AK activity)) stood at 1.1.

Regarding `CCOC(=O)Oc1c(OC)cc(C(=O)O[C@@H]2C[C@@H]3CN4CCc5c([nH]c6cc(OC)ccc56)[C@H]4C[C@@H]3[C@H](C(=O)OC)[C@H]2OC)cc1OC` [Syrosingopine], the fold induction at 50 µM with K. pneumoniae (planktonic K. pneumoniae, cutoff for positive-scoring molecules 3-fold increase, read-out: AK-based Prestwick Library Screening Results, K. pneumoniae (increase in extracellular AK activity)) stood at 0.5; in test [1] (planktonic S. aureus, cutoff for positive-scoring molecules 3-fold increase, read-out: AK-based Prestwick Library Screening Results, S. aureus (increase in extracellular AK activity)) it was 0.3; in the test with P. aeruginosa (planktonic P. aeruginosa, cutoff for positive-scoring molecules 3-fold increase, read-out: AK-based Prestwick Library Screening Results, P. aeruginosa (increase in extracellular AK activity)) it was 0.5; in the test on E. coli (planktonic E. coli, cutoff for positive-scoring molecules 3-fold increase, read-out: AK-based Prestwick Library Screening Results, E. coli (increase in extracellular AK activity)), 0.6; with E. faecium (planktonic E. faecium, cutoff for positive-scoring molecules 3-fold increase, read-out: AK-based Prestwick Library Screening Results, E. faecium (increase in extracellular AK activity)), 0.9; in test [2] (planktonic A. baumannii, cutoff for positive-scoring molecules 3-fold increase, read-out: AK-based Prestwick Library Screening Results, A. baumannii (increase in extracellular AK activity)), 0.6. Also, the fold induction at 50 µM in the test on E. cloacae (planktonic E. cloacae, cutoff for positive-scoring molecules 3-fold increase, read-out: AK-based Prestwick Library Screening Results, E. cloacae (increase in extracellular AK activity)) was found to be 0.6.

With `CC(=O)NC1CCSC1=O` (racemic) [N-Acetyl-DL-homocysteine Thiolactone], in the test on K. pneumoniae (setting [3]), the “AK-based Prestwick Library Screening Results, K. pneumoniae (fold increase in extracellular AK activity)” value stood at 0.4. Moreover, in test [1] (setting [3]), the “AK-based Prestwick Library Screening Results, S. aureus (fold increase in extracellular AK activity)” value is on record as 0.4. Moreover, in the test with P. aeruginosa (setting [3]), the “AK-based Prestwick Library Screening Results, P. aeruginosa (fold increase in extracellular AK activity)” value amounted to 0.3. In the test on E. coli (setting [3]), the “AK-based Prestwick Library Screening Results, E. coli (fold increase in extracellular AK activity)” value is given as 0.5. In the test with E. faecium (setting [3]), the “AK-based Prestwick Library Screening Results, E. faecium (fold increase in extracellular AK activity)” value was 0.8. Further, in test [2] (setting [3]), the “AK-based Prestwick Library Screening Results, A. baumannii (fold increase in extracellular AK activity)” value is recorded as 0.4. The “AK-based Prestwick Library Screening Results, E. cloacae (fold increase in extracellular AK activity)” value in the test on E. cloacae (setting [3]) amounted to 0.7.

With `O=C1c2ccccc2C(=O)C1c1ccccc1` [Phenindione], the fold induction at 50 µM was determined as 1.1 in the test on K. pneumoniae (planktonic, cutoff for positive 3-fold increase, read-out: AK-based Prestwick Library Screening Results, K. pneumoniae (fold increase in extracellular AK activity)); 1.1 in test [1] (planktonic, cutoff for positive 3-fold increase, read-out: AK-based Prestwick Library Screening Results, S. aureus (fold increase in extracellular AK activity)); 0.9 in the test on P. aeruginosa (planktonic, cutoff for positive 3-fold increase, read-out: AK-based Prestwick Library Screening Results, P. aeruginosa (fold increase in extracellular AK activity)); 1.2 in the test on E. coli (planktonic, cutoff for positive 3-fold increase, read-out: AK-based Prestwick Library Screening Results, E. coli (fold increase in extracellular AK activity)); 0.9 in the test with E. faecium (planktonic, cutoff for positive 3-fold increase, read-out: AK-based Prestwick Library Screening Results, E. faecium (fold increase in extracellular AK activity)); 1.1 in test [2] (planktonic, cutoff for positive 3-fold increase, read-out: AK-based Prestwick Library Screening Results, A. baumannii (fold increase in extracellular AK activity)). Moreover, the fold induction at 50 µM in the test on E. cloacae (planktonic, cutoff for positive 3-fold increase, read-out: AK-based Prestwick Library Screening Results, E. cloacae (fold increase in extracellular AK activity)) was found to be 1.3.
